Results as given in patent US20230165829A1, “FLAVAGLINE DERIVATIVES FOR INHIBITION OF KRAS ONCOGENE ACTIVATION” (KHR BIOTEC GMBH, priority 2018, published 2023).
Like-named read-outs stand apart in the source and are kept apart here.

Assays:
RAS [1] = assay: Active Ras pull down assay (CRAF-RBD, Ral-GDS-RA) after EGF stimulation in HeLa cells; type: cell-based; settings: pre-treatment at 200 nM, 1 h before EGF stimulation
RAS [2] = settings: cited from earlier work

Row | Compound | inactivation of KRAS (inhibition of KRAS activation), relative luminescence vs DMSO (KRAS G12V) | further results
1 | CNCCOc1ccc2c(c1)O[C@@]1(c3ccc(Cl)cc3)[C@H](c3ccccc3)C[C@@H](O)[C@@]21O [IMD-26260] | inactivation of KRAS | 
2 | CNC(=O)[C@H]1[C@@H](O)[C@@]2(O)c3c(OC)cc(OC)cc3O[C@@]2(c2ccc(Br)cc2)[C@@H]1c1ccccc1 [FL13] | inactivation of KRAS | 
3 | COc1cc(OC)c2c(c1)O[C@@]1(c3ccc(Br)cc3)[C@H](c3cccc(F)c3)C[C@H](NC(N)=O)[C@@]21O [FL40] | inactivation of KRAS | 
4 | COC(=O)[C@H]1[C@@H](O)[C@@]2(O)c3c(OC)cc(OC)cc3O[C@@]2(c2ccc(Br)cc2)[C@@H]1c1ccccc1 [FL10] | inactivation of KRAS | 
5 | COc1cc(OC)c2c(c1)O[C@@]1(c3ccc(Cl)cc3)[C@H](c3cccc(F)c3)C[C@H](NC(=O)N(C)C)[C@@]21O [FL42] | inactivation of KRAS | 
6 | COc1cc(OC)c2c(c1)O[C@@]1(c3ccc(Br)cc3)[C@H](c3ccccc3)C[C@@H](O)[C@@]21O [FL3] | inactivation of KRAS | 
7 | COc1ccc([C@@]23Oc4cc(OC)cc(OC)c4[C@]2(O)[C@H](O)C[C@H]3c2cccc(F)c2)cc1 [FL15] | inactivation of KRAS | 
8 | COc1ccc([C@@]23Oc4cc(OC)cc(OC)c4[C@]2(O)[C@H](OC=O)C[C@H]3c2ccccc2)cc1 [FL19] | inactivation of KRAS | 
9 | COc1ccc([C@@]23Oc4cc(OC)cc(OC)c4[C@]2(O)[C@H](O)[C@H](C(=O)N(C)C)[C@H]3c2ccccc2)cc1 [rocaglamide] |  | activation of RAS in response to EGF (GTP-loaded Ras pull down) (RAS [1]): inhibited; inactivation of KRAS (inhibition of KRAS activation), relative luminescence vs DMSO (KRAS G12V; 100 nM compounds for 4 h, KRAS G12V transfected HeLa cells, similar results with KRAS WT + EGF (100 ng/ml, 30 min)): inactivation of KRAS; RAS-activation in KRAS-mutated cell lines (RAS [2]): inhibits RAS-activation; specificity for KRAS versus isoforms HRAS and NRAS (RAS [2]): not specific enough to differentiate between KRAS and a closely related isoform HRAS and NRAS
10 | COc1cc(OC)c2c(c1)O[C@@]1(c3ccc(Br)cc3)[C@H](c3cccc(F)c3)C[C@H](NC(=O)N(C)C)[C@@]21O [FL37] | inactivation of KRAS | 
